Laboratory results as given in patent US9970938B2, “Use of BUBR1 as a biomarker of drug response to furazanobenzimidazoles” (Basilea Pharmaceutica AG, priority 2011, dated 2018).

What was measured:
Format in all cases: cell-based, human
GXF97 = test: Colony outgrowth assay, patient-derived tumour xenograft cells; design: key: S: BAL27862-sensitive tumour cells have IC70 values in the low nanomolar range; R: BAL27862-resistant tumour cells are defined by IC70 values >600 nanomolar; details: Gastric
Protocol: (§1) Single cell suspensions of patient-derived tumour xenografts (maintained in nude mice) were prepared. For colony outgrowth assays, cells were plated in soft agar in 24-well plates according to the assay introduced by Hamburger & Salmon (Primary bioassay of human tumour stem cells, Science, 1977, 197:461-463). 2.0E+04-6.0E+04 cells in 0.2 mL medium containing 0.4% agar were plated out on a bottom layer of 0.75% agar. Test compounds were applied in 0.2 mL culture medium. Every 24-well plate contained untreated controls and samples in triplicates. Cultures were incubated at 37° C. and 7.5% CO2 for 5-28 days. 24 hours prior to analysis, vital colonies were stained with a solution of metabolizable tetrazolium salt (Alley M C et al, Life Sci. 1982, 31:3071-3078) and were counted with an automatic image analysis system (Omnicon 3600, Biosys GmbH).
(§2) Relative drug effects were expressed by the ratio of the mean number of colonies in the treated wells and the control wells. IC70-values were determined by plotting compound concentrations versus relative colony counts.

LXFA629 = test: as above; design: key: S: BAL27862-sensitive tumour cells have IC70 values in the low nanomolar range; R: BAL27862-resistant tumour cells are defined by IC70 values >600 nanomolar; details: Lung
Protocol: as §1, §2

GXF251 = test: as above; design: key: S: BAL27862-sensitive tumour cells have IC70 values in the low nanomolar range; R: BAL27862-resistant tumour cells are defined by IC70 values >600 nanomolar; details: Gastric
Protocol: as §1, §2

LXFL529 = test: as above; design: key: S: BAL27862-sensitive tumour cells have IC70 values in the low nanomolar range; R: BAL27862-resistant tumour cells are defined by IC70 values >600 nanomolar; details: Lung
Protocol: as §1, §2

HeLa cells = test: BUBR1 siRNA pool, tumour cell phenotype and cell number by immunostaining; details: 50 nM BAL27862, 24 hours, 48 hours after siRNA
Protocol: In order to show BUBR1 is a biomarker of resistance, siRNA experiments were performed. For siRNA experiments to assess effects on tumour cell phenotype and numbers (FIG. 8), HeLa (ATCC reference CCL-2) cervical cancer cells were cultured at 37° C. and 5% CO2 in DMEM with 10% FCS (Invitrogen). 1000 HeLa cells per well were seeded into black 384 well multititer plates (BD Falcon). Cells were reversely transfected with 20 nM non-targeting control siRNA (ON-Target-plus non-targeting pool D001810, Dharmacon) or a mixture of four BUBR1 siRNAs (ON-Target-plus Smartpool L-004101, Dharmacon, see sequence information below) using Dharmafect1 (Dharmacon, Thermo) transfection reagent. 48 hours after cell seeding and siRNA transfection, one replicate pair of siRNA clones was treated with BAL27862 (50 nM, 0.1% DMSO) and another replicate pair with control solution (0.1% DMSO) for 24 hours. […] Based on the immunostaining, the morphology of treated cells was analysed using a multiparametric approach (BD Pathway 855 fluorescence microscope; 20× objective) with appropriate software. The number of cells per well was also calculated based on Hoe33342 staining of nuclei. […]

N#CCCNc1nonc1-c1nc2ccccc2n1CC(=O)c1ccc(N)cc1 [BAL27862, 3-(4-{1-[2-(4-Amino-phenyl)-2-oxo-ethyl]-1H-benzoimidazol-2-yl}-furazan-3-ylamino)-propionitrile]
Sensitive (S)/Resistant (R), by IC70 in colony outgrowth (GXF97): R (BAL27862-resistant tumour cells are defined by IC70 values >600 nanomolar)
Sensitive (S)/Resistant (R), by IC70 in colony outgrowth (LXFA629): R (BAL27862-resistant tumour cells are defined by IC70 values >600 nanomolar)
Sensitive (S)/Resistant (R), by IC70 in colony outgrowth (GXF251): S
Sensitive (S)/Resistant (R), by IC70 in colony outgrowth (LXFL529): S
HeLa cell number and fraction of cells with a normal phenotype after pooled BUBR1 siRNA (HeLa cells): BUBR1 was required for optimal effects
